In US8263605B2, “Modulators of muscarinic receptors” (Vertex Pharmaceutical Incorporated, priority 2006, dated 2012):

Key:
M1 muscarinic receptor = target: T1, M1 muscarinic receptor (Homo sapiens, UniProt P11229); experiment: Functional mobilization of intracellular calcium (FLIPR), M1-CHO cells; format: cell-based; details: for Emax: 100% efficacy is the maximum response obtained with the Carbachol control; for M1 Activity: CHO cells expressing M1, calcium mobilization
T1 construct: expressed in transfected cells; host or cells: CHO (M1-CHO)
T1 sequence (P11229 1-460): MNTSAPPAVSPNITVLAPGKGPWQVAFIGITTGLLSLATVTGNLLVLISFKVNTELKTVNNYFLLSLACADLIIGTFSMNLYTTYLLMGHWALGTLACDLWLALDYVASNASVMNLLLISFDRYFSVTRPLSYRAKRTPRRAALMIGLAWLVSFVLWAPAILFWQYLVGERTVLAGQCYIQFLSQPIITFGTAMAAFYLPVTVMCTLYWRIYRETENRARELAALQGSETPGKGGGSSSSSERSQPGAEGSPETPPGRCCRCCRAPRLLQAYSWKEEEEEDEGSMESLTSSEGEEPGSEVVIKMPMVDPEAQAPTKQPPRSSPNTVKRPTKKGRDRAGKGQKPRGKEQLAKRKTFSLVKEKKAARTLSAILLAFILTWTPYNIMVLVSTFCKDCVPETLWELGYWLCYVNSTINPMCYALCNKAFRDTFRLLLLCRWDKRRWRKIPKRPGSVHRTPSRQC
Experimental: (§1) Functional Mobilization of Intracellular Calcium to Determine Muscarinic Receptor Activity:
(§2) CHO cells expressing muscarinic receptors (M1 to M5) are grown as monolayers in tissue culture flasks at 37° C. in a humidified atmosphere containing 5% CO2 and passaged every 3-5 days. The growth media is Dulbecco's modified eagles medium (DMEM, Gibco Cat#12430-054), containing 25 mM Hepes and supplemented with Fetal Bovine Serum (Hyclone, cat# SH30071.03), 0.1 mM of MEM non-essential amino acids (GIBCO, Cat#11140-050), 1 mM MEM Sodium Pyruvate (GIBCO Cat#11360-070) and 100 units/ml of Penicillin G and 100 μg/ml of Streptomycin (GIBCO Cat#15140-122). The recombinant muscarinic receptor cell lines are grown under antibiotic pressure with media containing 25 μg/ml zeocin and 500 μg/ml G418 (M1-CHO), 4 μg/ml puromycin, 50 μg/ml zeocin and 2.5 μg/ml blasticidin (M2 and M4-CHO) or 50 μg/ml zeocin and 4 μg/ml puromycin (M3 and M5-CHO).
(§3) Cells are harvested at 80-90% confluence using Versene (GIBCO Cat#15040-066), collected by centrifugation and seeded 18-24 hours prior to running the calcium assay at a density of 5,000-10,000 cells/well in […], clear-bottomed 384-well plates (BD Biocoat, poly-D-lysine, Cat#356663). The day of the experiment, the cells are washed with a plate washer (Bioteck Instrunents, ELX 405) using bath 1 buffer (140-mM NaCl, 4.5-mM KCl, 2-mM CaCl2, 1-mM MgCl2, 10-mM Hepes-Na, 10-mM Glucose, pH 7.4, with NaOH) containing 1 mM Probenecid. Next, the calcium dye Fluo-3 (25 μl/well of Fluo-3 AM at 4 μM, Molecular Probes F-1241, in Bath 1 buffer containing 1 mM Probenecid) is added to the 25 μl of Bath 1 remaining in each well after the plate wash and the dye is loaded at 37° C. in the tissue culture incubator for 60-90 min. The fluorescent dye is removed using the plate washer with Bath 1 containing 1 mM Probenecid, leaving 25 μl/well of this solution after the wash. Alternatively, cells can be loaded with the calcium indicator from Molecular Devices (Calcium 3 Assay Reagents, Cat # R7181) adding 5 μl of a 5× solution dye in Bath 1 containing 1 mM Probenecid (10 ml per dye flask cat# R7182 to generate a solution 20×) to 20 μl of the same buffer. After loading for 60 min, the experiment can be run without having to remove the dye.
(§4) Compounds are prepared at a 2× fold concentration in a 96-well plate (round bottom, Costar Corning cat#3656), by reconstituting the pre-spotted compounds in bath 1 containing 1 mM probenecid. The final concentration DMSO is 0.5%, and the amount of DMSO is normalized across the assay plate. To determine an agonist action of the compounds on muscarinic receptors, the reconstituted compounds are added (25 μl compound/well) to the cell assay plate (containing 25 μl/well) using the multi-channel robotic system of the FLIPR 3 Instrument (Molecular Devices, Sunnyvale, Calif.). To determine a functional inhibitory action of the compounds on muscarinic receptors, the reconstituted compounds are added (25 μl compound/well) to the assay plate and pre-incubated for 15 min prior to adding 25 μl of Carbachol at 3× the EC80 for each muscarinic subtype. Alternatively, the compounds can be co-applied simultaneously with the agonist. In both assay modes, the fluorescence is recorded for 60 sec (excitation wavelength is […] and emission wavelength 540 nm) using the FLIPR 3 instrument.
(§5) The potency, efficacy and selectivity of the muscarinic compounds were evaluated by screening the compound activity across the whole family (M1 to M5 cells). Compounds were also screened for activity on other proteins such as other GPCRs and ion channels to determine selectivity on M4 receptors.
(§6) Examples of activities and efficacies of the muscarinic compounds of formulae (I, Ia, Ib, Ic, Id, and Ie) on modulating M1 and M4 receptors are shown below in Table 4. […]

M4 muscarinic receptor = target: T2, M4 muscarinic receptor (Homo sapiens, UniProt P08173); experiment: Functional mobilization of intracellular calcium (FLIPR), M4-CHO cells; format: cell-based; details: for Emax: 100% efficacy is the maximum response obtained with the Carbachol control; for M4 Activity: CHO cells expressing M4, calcium mobilization
T2 construct: expressed in transfected cells; host or cells: CHO (M4-CHO)
T2 sequence (P08173 1-479): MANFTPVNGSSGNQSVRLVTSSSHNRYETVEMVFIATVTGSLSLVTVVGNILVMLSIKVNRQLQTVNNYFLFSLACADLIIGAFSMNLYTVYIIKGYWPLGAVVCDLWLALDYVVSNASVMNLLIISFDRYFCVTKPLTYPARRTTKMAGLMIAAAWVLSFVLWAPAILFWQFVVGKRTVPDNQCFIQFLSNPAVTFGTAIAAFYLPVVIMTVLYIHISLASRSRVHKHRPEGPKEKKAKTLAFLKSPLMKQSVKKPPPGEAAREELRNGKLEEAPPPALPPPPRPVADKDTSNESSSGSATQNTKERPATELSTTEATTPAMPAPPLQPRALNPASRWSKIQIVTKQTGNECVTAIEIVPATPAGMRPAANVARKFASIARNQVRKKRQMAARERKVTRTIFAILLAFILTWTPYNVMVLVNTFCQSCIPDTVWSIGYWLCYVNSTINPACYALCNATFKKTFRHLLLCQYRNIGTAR
Experimental: as §1, §2, §3, §4, §5, §6

Compound | Emax (M1 muscarinic receptor) [%] | M1 Activity (M1 muscarinic receptor) | Emax (M4 muscarinic receptor) [%] | M4 Activity (M4 muscarinic receptor)
CN(C)C(=O)N[C@H]1CC2(CCN(C3CC4CC[C@@H]3C4)CC2)c2ccccc21 (stereo in doubt) [Compound No. 119, 3-((S)-1′-((1R,2S,4S)-bicyclo[2.2.1]heptan-2-yl)-2,3-dihydrospiro[indene-1,4′-piperidine]-3-yl)-1,1-dimethylurea] | < 25 | + (activity was measured to be greater than 10.0 μM) | 25 to 100 | +++ (activity was measured to be less than 2.0 μM)
CC#CCOC(=O)N1CCC(N2CCC3(CCN(C(=O)N(C)C)c4ccccc43)CC2)CC1 [Compound No. 5, but-2-ynyl 4-(1′-(dimethylcarbamoyl)-2′,3′-dihydro-1′H-spiro[piperidine-4,4′-quinoline]-1-yl)piperidine-1-carboxylate] | 25 to 100 | +++ (activity was measured to be less than 2.0 μM) | 25 to 100 | +++ (activity was measured to be less than 2.0 μM)
Cc1cncc(N2CCC(N3CCC4(CCN(C(=O)N(C)C)c5ccccc54)CC3)CC2)n1 [Compound No. 9, N,N-dimethyl-1-(1-(6-methylpyrazin-2-yl)piperidin-4-yl)-2′,31-dihydrospiro[piperidine-4,4′-quinoline]-1′-carboxamide] | 25 to 100 | +++ (activity was measured to be less than 2.0 μM) | 25 to 100 | +++ (activity was measured to be less than 2.0 μM)
CCOC(=O)N1CCC(N2CCC3(CCN(C(C)=O)c4ccccc43)CC2)CC1 [Compound No. 11, ethyl 4-(1′-acetyl-2′,3′-dihydro-1′H-spiro[piperidine-4,4′-quinoline]-1-yl)piperidine-1-carboxylate] | > 100 | +++ (activity was measured to be less than 2.0 μM) | > 100 | +++ (activity was measured to be less than 2.0 μM)
Cc1ncc(N2CCC(N3CCC4(CCN(C(=O)N(C)C)c5ccccc54)CC3)CC2)nc1C [Compound No. 20, 1-(1-(5,6-dimethylpyrazin-2-yl)piperidin-4-yl)-N,N-dimethyl-2′,3′-dihydrospiro[piperidine-4,4′-quinoline]-1′-carboxamide] | 25 to 100 | ++ (activity was measured to be from 2.0 μM to 10.0 μM) | 25 to 100 | +++ (activity was measured to be less than 2.0 μM)
C#CCOC(=O)N1C2CCC1CC(N1CCC3(CCN(C(=O)N(C)C)c4ccccc43)CC1)C2 (stereo not shown) [Compound No. 28, prop-2-ynyl 3-(1′-(dimethylcarbamoyl)-2′,3′-dihydro-1′H-spiro[piperidine-4,4′-quinoline]-1-yl)-8-azabicyclo[3.2.1]octane-8-carboxylate] | 25 to 100 | +++ (activity was measured to be less than 2.0 μM) | 25 to 100 | +++ (activity was measured to be less than 2.0 μM)
CCc1nsc(N2C3CCC2CC(N2CCC4(CCN(C(=O)N(C)C)c5ccccc54)CC2)C3)n1 (stereo not shown) [Compound No. 32, 1-(8-(3-ethyl-1,2,4-thiadiazol-5-yl)-8-azabicyclo[3.2.1]octan-3-yl)-N,N-dimethyl-2′,3′-dihydro-1′ H-spiro[piperidine-4,4′-quinoline]-1′-carboxamide] | 25 to 100 | +++ (activity was measured to be less than 2.0 μM) | 25 to 100 | +++ (activity was measured to be less than 2.0 μM)
CCOC(=O)N1CCC(N2CCC3(CC2)CN(C(=O)N(C)C)c2ccccc23)CC1 [Compound No. 39, ethyl 4-(1-(dimethylcarbamoyl)spiro[indoline-3,4′-piperidine]-1′-yl)piperidine-1-carboxylate] | 25 to 100 | +++ (activity was measured to be less than 2.0 μM) | 25 to 100 | +++ (activity was measured to be less than 2.0 μM)
Cc1nsc(N2C3CCC2CC(N2CCC4(CC2)CN(C(=O)N(C)C)c2ccccc24)C3)n1 (stereo not shown) [Compound No. 65, N,N-dimethyl-1′-(8-(3-methyl-1,2,4-thiadiazol-5-yl)-8-azabicyclo[3.2.1]octan-3-yl)spiro[indoline-3,4′-piperidine]-1-carboxamide] | 25 to 100 | +++ (activity was measured to be less than 2.0 μM) | 25 to 100 | +++ (activity was measured to be less than 2.0 μM)
CN(C)C(=O)N1CC2(CCN(C3CC4CCC(C3)N4c3cnccn3)CC2)c2ccccc21 (stereo not shown) [Compound No. 103, N,N-dimethyl-1′-(8-(pyrazin-2-yl)-8-azabicyclo[3.2.1]octan-3-yl)spiro[indoline-3,4′-piperidine]-1-carboxamide] | 25 to 100 | +++ (activity was measured to be less than 2.0 μM) | > 100 | +++ (activity was measured to be less than 2.0 μM)
CCOC(=O)N1C2CCC1CC(N1CCC3(CCN(C(C)=O)c4ccccc43)CC1)C2 (stereo not shown) [compound 1] | 25 to 100 | +++ (activity was measured to be less than 2.0 μM) | 25 to 100 | +++ (activity was measured to be less than 2.0 μM)
COC(=O)N1CCC(N2CCC3(CCN(C(=O)N(C)C)c4ccccc43)CC2)CC1 [compound 2] | 25 to 100 | +++ (activity was measured to be less than 2.0 μM) | 25 to 100 | +++ (activity was measured to be less than 2.0 μM)
CCOC(=O)N1CCC(N2CCC3(CCN(C(=O)N(C)C)c4ccccc43)CC2)CC1 [compound 3] | 25 to 100 | +++ (activity was measured to be less than 2.0 μM) | > 100 | +++ (activity was measured to be less than 2.0 μM)
